Results on 17 compounds are retold here after PubChem BioAssay (NCI).

Assay in all cases: NCI-60 cell line screen, 48 h
The subject of test [1] is A498 renal.
For test [2], the system named is A549 NSCLC.
Test [3] deals with ACHN renal.
The test system of test [4] is BT-549 breast.
Test [5] relates to CCRF-CEM leukemia.
The test system of test [6] is HCT-15 colon.
Test [7] relates to HS 578T breast.
Test [8] relates to K-562 leukemia.
In test [9] the test system is MCF7 breast.
In test [10] the test system is MOLT-4 leukemia.
In test [11] the test system is NCI-H522 lung.
Test [12] has as its system OVCAR-4 ovarian.
Test [13] deals with PC-3 prostate.
For test [14], the system named is SK-MEL-5 melanoma.
Test [15] has as its system SN12C renal.
The test system of test [16] is TK-10 renal.
For test [17], the system named is U251 CNS.
In test [18] the test system is HOP-92 NSCLC.
Test [19] relates to SR leukemia.

Molecules are shown by their SMILES.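 The compound was tested at five concentrations on cells cultured in 96-well plates, with a 48-hour exposure period. TGI denotes the concentration required for complete inhibition of growth.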 Where only a bound is given, the exact number is not on record here.

`c1ccc2c(c1)ncn2CCn1ccnc1`: the TGI in test [1], in test [2], in test [3], in test [4], in test [5] and in [6] was greater than 100 µM in each case. For the same compound, the TGI in test [7], in [8], in test [9], in test [10], in test [11] and in test [12] was greater than 100 µM throughout. Moreover, the TGI in [13], in test [14], in [15], in [16] and in test [17] was greater than 100 µM each time.

As for `O=CN1CCN(C(=O)c2ccc(Cl)cc2)C1=S`, the TGI in test [1] was determined as 29.3 µM; in test [2], 28 µM; in test [3], 31 µM; in test [4], 69.2 µM; in test [5], 37.4 µM; in [6], 55.8 µM. Further, the TGI was 14.9 µM in test [18]; greater than 100 µM in test [7]; 39.6 µM in [8]; 11 µM in test [9]; 48.2 µM in test [10]; 31.2 µM in test [11]. Besides, the TGI in [12] worked out at 35.5 µM; in test [13] it was 32.1 µM; in test [15], 28 µM; in test [16], 28.2 µM; in test [17], 28.2 µM.

Turning to `CC1C2CC(CC2O)C1(C)C` (stereo not drawn), the TGI in test [1], in test [2], in test [3], in test [4], in test [5] and in test [18] was greater than 100 µM throughout. Besides, the TGI in test [7], in test [8], in test [10], in test [11], in test [12] and in [13] was greater than 100 µM in each case. In addition, the TGI in [14], in [15], in test [19], in test [16] and in [17] was greater than 100 µM each time.

Consider `Clc1cc2nnn(C3CCCCO3)c2cc1Cl` (stereo not drawn), for which the TGI in [1], in test [2], in test [3], in test [4], in test [5] and in test [6] was greater than 100 µM throughout. The TGI in test [7], in test [8], in test [9], in test [10], in test [11] and in [12] was greater than 100 µM throughout. Further, the TGI in [13], in test [14], in [15], in test [19], in [16] and in test [17] was greater than 100 µM each time.

For the compound `O=C1CCCC(=O)N1n1c(Cc2ccc(Cl)cc2)n[nH]c1=O`, the TGI in test [2], in test [3], in test [4], in test [5], in test [6] and in [7] was greater than 100 µM each time. The TGI in test [8], in [9], in test [10], in [11], in [12] and in test [13] was greater than 100 µM in each case. Besides, the TGI in test [14], in [15], in test [16] and in [17] was greater than 100 µM each time.

For `Nc1nc(NNc2ccccc2F)cc(=O)[nH]1`, the TGI in [1], in test [2], in test [3], in test [4], in [5] and in test [6] was greater than 100 µM each time. The TGI in test [7], in test [8], in test [9], in test [10], in [12] and in [13] was greater than 100 µM in each case. For the same compound, the TGI in test [14], in [15], in test [19], in test [16] and in test [17] was greater than 100 µM in each case.

On to `O=C1C=Cc2c1csc2Br`, for which the TGI in [2] was greater than 100 µM; in test [3], 86.5 µM; in [4], greater than 100 µM; in [5], 45.8 µM; in test [6] it was greater than 100 µM; in [7], greater than 100 µM. The TGI in test [8] was 97.7 µM; in test [9], 95.9 µM; in [10] it was 54.7 µM; in [11] it was 38.4 µM; in test [12], greater than 100 µM; in test [13] it was greater than 100 µM. For the same compound, the TGI was greater than 100 µM in [14]; greater than 100 µM in test [15]; 22.7 µM in test [19]; greater than 100 µM in test [16]; greater than 100 µM in test [17].

On to `O=C1NC(=O)/C(=C/c2ccc(S(=O)(=O)N/N=C/c3ccccc3)cc2)N1`, for which the TGI in test [1], in test [2], in test [3], in test [4], in test [5] and in [6] was greater than 100 µM each time. The TGI in test [18], in test [7], in test [8], in [9], in [10] and in test [12] was greater than 100 µM throughout. For the same compound, the TGI in [13], in test [14], in test [15], in test [16] and in [17] was greater than 100 µM in each case.

With `c1ccc(-c2sc(-c3ccccc3)c3c2C2CCC3C2)cc1`, the TGI in test [1], in test [2], in test [3], in test [4], in test [5] and in [6] was greater than 100 µM throughout. The TGI was 47.9 µM in test [18]; 70.6 µM in test [7]; greater than 100 µM in test [8]; greater than 100 µM in test [10]; 60.5 µM in test [11]; greater than 100 µM in [12]. Also, the TGI in [13] was 72.6 µM; in test [14] it was 49.7 µM; in test [15], greater than 100 µM; in test [19] it was 56.8 µM; in [16] it was 89.7 µM; in test [17] it was greater than 100 µM.

Turning to `Nc1ncnc2c1ccn2CC=C(CO)CO`, the TGI in [1], in test [2], in [3], in test [4], in [5] and in test [6] was greater than 100 µM each time. For the same compound, the TGI in [18], in test [7], in test [8], in test [9], in test [10] and in [11] was greater than 100 µM in each case. The TGI in [12], in [13], in [14], in test [15], in test [16] and in [17] was greater than 100 µM in each case.

Regarding `C[C@]12CC[C@H]3[C@@H](CC=C4C[C@@H](O)CC[C@@]43C)[C@@H]1C[C@H](N1CCOCC1)[C@@H]2O`, the TGI in test [1], in test [2], in [3], in [4], in test [5] and in test [6] was greater than 100 µM in each case. Also, the TGI in test [18], in test [7], in test [8], in test [9], in [10] and in test [11] was greater than 100 µM each time. Also, the TGI in test [12], in [13], in [14], in test [15], in [16] and in test [17] was greater than 100 µM each time.

As to `CCn1c(SCC(=O)NNC(=S)Nc2ccc(Cl)cc2)nc2ccccc2c1=O`, the TGI was 98.3 µM in test [1]; greater than 100 µM in [2]; greater than 100 µM in test [3]; greater than 100 µM in [4]; greater than 100 µM in test [5]; greater than 100 µM in test [6]. Moreover, the TGI in test [7], in test [8], in test [9], in test [10], in [11] and in [12] was greater than 100 µM each time. The TGI in test [13], in [14], in test [15], in test [19], in test [16] and in [17] was greater than 100 µM throughout.

Take `Cc1ccc(N(C)S(=O)(=O)c2ccccc2)cc1`: the TGI in [2], in test [3], in test [4], in [5], in [6] and in test [7] was greater than 100 µM each time. Moreover, the TGI in [8], in test [9], in test [10], in test [11], in [12] and in test [13] was greater than 100 µM throughout. For the same compound, the TGI in test [14], in test [15], in test [19], in test [16] and in test [17] was greater than 100 µM each time.

`O=C(Nc1ccc(Cl)cc1Cl)c1cc2nc3ccccc3c(=O)n2c2ccccc12`: the TGI in [1], in [2], in [4], in test [5], in [6] and in test [18] was greater than 10 µM in each case. In addition, the TGI in [7], in [8], in [9], in test [11], in test [13] and in [14] was greater than 10 µM each time. The TGI in test [16] and in [17] was greater than 10 µM throughout.

Turning to `CCOC(=O)C1=COC(C)(C)CC1=O`, the TGI in test [1], in test [2], in test [3], in [4], in [6] and in test [7] was greater than 100 µM each time. Further, the TGI in test [8], in test [9], in test [10], in test [11], in test [12] and in test [13] was greater than 100 µM each time. In addition, the TGI in [14], in test [15], in test [16] and in test [17] was greater than 100 µM each time.

Turning to `CC(=O)OCC1=C2C(OC(=O)C(C)C)CC3(COC(C)=O)OC3/C=C\C3(C)OC3C2OC1=O` (stereo not drawn), the TGI in test [1], in test [2], in [3], in [4], in test [5] and in test [6] was greater than 100 µM in each case. Also, the TGI in [7], in test [8], in [9], in [10], in test [12] and in test [13] was greater than 100 µM in each case. Further, the TGI in [14], in [15], in test [19], in test [16] and in [17] was greater than 100 µM in each case.

Consider `CCCC(=O)n1[nH]c(=O)n(C(C)(C)C)c1=O`, for which the TGI in [2], in test [3], in test [4], in [5], in test [6] and in [7] was greater than 100 µM each time. Moreover, the TGI in [8], in test [9], in [10], in test [12], in test [13] and in test [14] was greater than 100 µM in each case. The TGI in test [15], in [19], in test [16] and in test [17] was greater than 100 µM each time.
